Source: patent US8207154B2, “Catatonic bacteriochlorophyll derivatives” (Yeda Research and Development Co., Ltd., priority 2005, dated 2012)
Read-outs that look alike come from different tables or passages of the source.

How the values were obtained:
St. albus = experiment: Phototoxicity on Gram-positive bacteria, colony counting; format: cell-based; details: 1 h incubation, illuminated 15 min at 70 mW/cm^2; read-out: Kd (phototoxicity)
Procedure: (§1) (ii) Bacterial cultures. Bacteria of strains St. albus and E. coli XL-1 were cultured in liquid LB medium (E. coli in LB containing 12.5 μg tetracyclin/ml) to a final density of OD600 nm=0.5-0.9 (1 OD=8×10^8 bacteria/ml). The bacteria were spun down (4000×g, 5 min.) and resuspended in PBS.
(§2) (b) Bacterial. To determine the photodynamic efficacy, bacteria were diluted to aliquots of 300 μl containing about 10^7 bacteria, and incubated with increasing concentrations of sensitizer in plastic test tubes in the dark for 1 h at room temperature, and then illuminated at 70 mW/cm^2 for 15 min. Samples of the treated bacteria cultures were subsequently plated at different dilutions (50-200 bacteria/plate) on LB agar and cultured for 24 h at 37° C. for determination of bacterial survival by colony counting. Triplicate determinations were conducted and representative experiments are shown.
(§3) The phototoxicity of positively-charged compound 5 was tested on Gram-positive St. albus and Gram-negative E. coli bacteria in comparison to the negatively-charged Pd 3^1-oxo-15-methoxycarbonylmethyl-Rhodobacteriochlorin 13^1-(2-sulfoethyl)amide dipotassium salt (described in PCT/IL03/00973). Bacteria were incubated with increasing concentrations of the sensitizers for 1 h and illuminated or kept in the dark. […] Gram-positive bacteria St. albus, was 100 times more sensitive to compound 5 than Gram-negative E. coli. No phototoxicity was observed when bacteria were incubated and treated with the same sensitizers' concentration range without illumination (dark controls).

E. coli = experiment: Phototoxicity on Gram-negative bacteria, colony counting; format: cell-based, E. coli XL-1; details: 1 h incubation, illuminated
Procedure: as §1, §2, §3

[1] = Octanol/water partition ratio; format: physicochemical
Source text: Optical absorption in water, λ (relative absorption): 753 (1.00), 519 (0.30), 354 (1.25) nm. Octanol/water partition ratio is 40/60. ESI-MS (+): 413.62 ([M-2×citrate]/2). Octanol/water partition ratio is 50/50. ESI-MS (+): 455.89 ([M-2×citrate]/2). Octanol/water partition ratio is 75/25.

H5V cells = experiment: Phototoxicity assay (PDT efficacy at two incubation times), neutral red survival; format: cell-based, mouse; details: then 10 min illumination, 12 J/cm^2
Procedure: H5V cells (40×10^3/well) were cultured in 96-well plates for 24 h to ˜80% confluence. To determine phototoxicity, the culture medium was replaced with 100 μl/well medium, in the absence or presence of 10^−8 to 10^−6 M sensitizer, and incubated in the dark for 15 min or 3 h in the culture incubator. The plates (PDT group) were then placed in the light field at room temperature and illuminated from the bottom for 10 min (800>λ>650 nm, 12 J/cm^2). After illumination, the medium was changed to fresh culture medium. The cultures were then placed in the culture incubator and cell survival was determined 24 h later, using the neutral red survival assay described below.
Following 24 h post PDT the culture medium in the wells was replaced with 100 μl fresh medium containing 40 μg/ml neutral red. The plate was incubated for 1.5 h in a dark culture incubator. The medium was aspirated and the cells washed with 100 μl of solution containing 1% CaCl2 and 0.5% formaldehyde, which removes the unincorporated dye and fixes the cells to the substratum. The dye was then extracted from the cells into the supernatant upon addition of 100 μl 1% glacial acetic acid in 50% ethanol. After 1-2 min at room temperature, the optical density of the wells was determined in a microplate spectrophotometer using a 570 nm filter. After subtraction of assay blanks, net optical density was computed as the average value of triplicate determinations. Cell survival was calculated as the percent of the dye accumulated in the untreated control. To determine cell survival data was plotted against sensitizer concentration. These curves were then used to calculated LD50 values.
Following synthesis, the compounds described in the Examples 23 to 75 above were purified, divided into equal aliquots and lyophilized for storage (desiccated at −20° C.). The exact material content was determined by HPLC-diode array detection, and the PDT efficacy was evaluated at two incubation times as described in the experimental section.

[2] = 15 min incubation in the dark, read-out: IC50 15 min
[3] = 3 h incubation in the dark, read-out: IC50 3 hours

Row | Compound | phototoxic killing concentration (St. albus) [nM] | effectiveness against Gram-negative E. coli (E. coli) | Octanol/water partition ratio [1] | IC50 (H5V cells; [2]) [nM] | IC50 (H5V cells; [3]) [nM]
1 | CCC1C2=Cc3c(C)c(C(=O)NCCS(=O)(=O)[O-])c4[n]3[Pd][n]3c(c(C)c(C(C)=O)c3=CC(=N2)C1C)=CC1=NC(=C4CC(=O)OC)C(CCC(=O)[O-])C1C.[K+].[K+] (stereo not drawn) [Pd 3^1-oxo-15-methoxycarbonylmethyl-Rhodobacteriochlorin 13^1-(2-sulfoethyl)amide dipotassium salt, reference compound] | 300 | not against Gram-negative E. coli |  |  | 
2 | 3^1-Oxo-15-methoxycarbonylmethyl-Rhodobacteriochlorin 13^1,17^3-di(3-N^3-trimethylammoniumpropyl)amide dicitrate salt [Compound 7] |  |  | 50/50 |  | 
3 | CC[C@H]1C2=NC(=Cc3c(C(C)=O)c(C)c4[n]3[Pd][n]3c(c(C)c(C(=O)NCC(O)CO)c3=C(CC(=O)OC)C3=NC(=C4)[C@@H](C)[C@@H]3CCC(=O)NCCN3CCOCC3)=C2)[C@@H]1C (stereo partly drawn) [Compound 53, Palladium 3^1-oxo-15-methoxycarbonylmethyl-Rhodobacteriochlorin-13^1-(2,3-dihydroxypropyl)amide-17^3-(2-morpholino-N-ethyl)amide] |  |  |  | 2000 | 900
4 | CC[C@H]1C2=NC(=Cc3c(C(C)=O)c(C)c4[n]3[Pd][n]3c(c(C)c(C(=O)NCC(O)CO)c3=C(CC(=O)OC)C3=NC(=C4)[C@@H](C)[C@@H]3CCC(=O)NCCN3CCNCC3)=C2)[C@@H]1C (stereo partly drawn) [Compound 54, Palladium 3^1-oxo-15-methoxycarbonylmethyl-Rhodobacteriochlorin-13^1-(2,3-dihydroxypropyl)amide-17^3-(2-piperazino-N-ethyl)amide] |  |  |  | 750 | 270
5 | CC[C@H]1C2=NC(=Cc3c(C(C)=O)c(C)c4[n]3[Pd][n]3c(c(C)c(C(=O)NCC(O)CO)c3=C(CC(=O)OC)C3=NC(=C4)[C@@H](C)[C@@H]3CCC(=O)NCCNCCN(CC)CC)=C2)[C@@H]1C (stereo partly drawn) [Compound 52, Palladium 3^1-oxo-15-methoxycarbonylmethyl-Rhodobacteriochlorin-13^1-(2,3-dihydroxypropyl)amide-17^3-(2-[(2-N^2-diethylaminoethyl)amino]ethyl)amide] |  |  |  | 830 | 890
6 | CC[C@H]1C2=NC(=Cc3c(C(C)=O)c(C)c4[n]3[Pd][n]3c(c(C)c(C(=O)NCCCN)c3=C(CC(=O)OC)C3=NC(=C4)[C@@H](C)[C@@H]3CCC(=O)NCCCN)=C2)[C@@H]1C [Compound 34, Palladium 3^1-oxo-15-methoxycarbonylmethyl-Rhodobacteriochlorin-13^1, 17^3-di(3-aminopropyl)amide] |  |  |  | 480 | 200
7 | CC[C@H]1C2=NC(=Cc3c(C(C)=O)c(C)c4[n]3[Pd][n]3c(c(C)c(C(=O)NCC(O)CO)c3=C(CC(=O)OC)C3=NC(=C4)[C@@H](C)[C@@H]3CCC(=O)NCCNCCN)=C2)[C@@H]1C (stereo partly drawn) [Compound 51, Palladium 3^1-oxo-15-methoxycarbonylmethyl-Rhodobacteriochlorin-13^1-(2,3-dihydroxypropyl)amide-17^3-(2-[(2-aminoethyl)amino]ethyl)amide] |  |  |  | 780 | 400
8 | CC[C@H]1C2=NC(=Cc3c(C(C)=O)c(C)c4[n]3[Pd][n]3c(c(C)c(C(=O)NCCNCCN(CC)CC)c3=C(CC(=O)OC)C3=NC(=C4)[C@@H](C)[C@@H]3CCC(=O)O)=C2)[C@@H]1C [Compound 31, Palladium 3^1-oxo-15-methoxycarbonylmethyl-Rhodobacteriochlorin-13^1-(2-[(2-N^2-diethylaminoethyl)amino]ethyl)amide] |  |  |  | 2600 | 600
9 | CC(=O)O.CC(=O)O.CC(=O)O.CC[C@H]1C2=NC(=Cc3c(C(C)=O)c(C)c4[n]3[Pd][n]3c(c(C)c(C(=O)NCCN(CCN)CCN)c3=C(CC(=O)OC)C3=NC(=C4)[C@@H](C)[C@@H]3CCC(=O)NCC(O)CO)=C2)[C@@H]1C (stereo partly drawn) [Compound 59, Palladium 3^1-oxo-15-methoxycarbonylmethyl-Rhodobacteriochlorin-13^1-([2-bis(2-aminoethyl)amine]ethyl)amide-17^3-(2,3-dihydroxypropyl)amide] |  |  |  | 450 | 190
10 | CC(=O)O.CC(=O)O.CC[C@H]1C2=NC(=Cc3c(C(C)=O)c(C)c4[n]3[Pd][n]3c(c(C)c(C(=O)NCC(O)CO)c3=C(CC(=O)OC)C3=NC(=C4)[C@@H](C)[C@@H]3CCC(=O)NCCCCNc3ccccn3)=C2)[C@@H]1C (stereo partly drawn) [Compound 74, Palladium 3^1-oxo-15-methoxycarbonylmethyl-Rhodobacteriochlorin-13^1-(2,3-dihydroxypropyl)amide-17^3-(4-N-(2′-pyridyl)aminobutyl)amide] |  |  |  | 740 | 290
11 | Palladium 3^1-oxo-15-methoxycarbonylmethyl-Rhodobacteriochlorin-13^1-(2-N^3-trimethylammoniumethyl)amide acetate (salt) [Compound 24] |  |  |  | 2400 | 1200
12 | CC[C@H]1C2=NC(=Cc3c(C(C)=O)c(C)c4[n]3[Pd][n]3c(c(C)c(C(=O)NCCN(CC)CC)c3=C(CC(=O)OC)C3=NC(=C4)[C@@H](C)[C@@H]3CCC(=O)NCCN(CC)CC)=C2)[C@@H]1C [Compound 45, Palladium 3^1-oxo-15-methoxycarbonylmethyl-Rhodobacteriochlorin-13^1, 17^3-di(2-N^2-diethylaminoethyl)amide] |  |  |  | 200 | 180
13 | CC(=O)O.CC[C@H]1C2=NC(=Cc3c(C(C)=O)c(C)c4[n]3[Pd][n]3c(c(C)c(C(=O)NCCN(C)C)c3=C(CC(=O)OC)C3=NC(=C4)[C@@H](C)[C@@H]3CCC(=O)NCCCO)=C2)[C@@H]1C [Compound 66, Palladium 3^1-oxo-15-methoxycarbonylmethyl-Rhodobacteriochlorin-13^1-(2-N^2-dimethylaminoethyl)amide-17^3-(3-hydroxypropyl)amide] |  |  |  | 550 | 200
14 | CC[C@H]1C2=NC(=Cc3c(C(C)=O)c(C)c4[n]3[Pd][n]3c(c(C)c(C(=O)NCC(O)CO)c3=C(CC(=O)OC)C3=NC(=C4)[C@@H](C)[C@@H]3CCC(=O)NCCNc3ccccn3)=C2)[C@@H]1C (stereo partly drawn) [Compound 56, Palladium 3^1-oxo-15-methoxycarbonylmethyl-Rhodobacteriochlorin-13^1-(2,3-dihydroxypropyl)amide-17^3-(2-N-(2′-pyridyl)aminoethyl)amide] |  |  |  | 790 | 320
